Laboratory results reported in patent US20230355596A1, “COMPOSITIONS AND METHODS OF USING NMDAR INHIBITORS AND KINASE INHIBITORS TO TREAT LIVER CANCER” (The University of Hong Kong, priority 2022, published 2023).
Like-named read-outs stand apart in the source and are kept apart here.

Tests used:
MHCC97L cells [1] = assay: MTT cell viability assay and drug interaction analysis; assay type: cell-based, human; conditions: single drug
MHCC97L cells [2] = assay: RNA-sequencing of drug-treated cells; assay type: cell-based, human; conditions: 10 μM ifenprodil, 5 μM sorafenib, 24 hours
Description: 3×10^5 MHCC97L cells were seeded onto a 10 -cm dish. 10 μM ifenprodil, 5 μM sorafenib, or both were added to the cells 1 day after seeding, and the control group was treated with DMSO (Sigma-Aldrich). After 24 hours of drug treatment, RNA was extracted using the MiniBEST Universal RNA Extraction Kit (TaKaRa) following the manufacturer's protocol. The final product was eluted in DEPC-treated H2O (ThermoFisher Scientific). RNA-seq experiments were performed at the Centre for Genomic Sciences (LKS Faculty of Medicine, The University of Hong Kong). The Illumina adaptors of the paired-end raw sequence reads were trimmed by Trimmomatic 0.39. The STAR aligner version 2.7 was used to align the sequence reads to the human genome (GRCh38.p13, Ensembl release 99) and quantify read counts for each Ensembl gene feature, which generated the raw count gene matrix. Differential expression analysis was performed in R (v 3.6.3) using DESeq2 (1.26.0) with the raw count matrix as input. Three biological replicates each for the ifenprodil-, sorafenib-, and ifenprodil+sorafenib combination-treated groups are compared against the DMSO-treated negative control group. Differentially expressed genes (DEGs) were identified as genes with the absolute values of its shrunken log2 fold-changes bigger than 1 and a false discovery rate smaller than 0.05. Gene annotation was done using the bioMaRt (2.42.1) package with Ensembl Human genes (GRCh38.p13) dataset. Gene ontology enrichment analysis was performed on up/down regulated DEGs retrieved from either ifenprodil, sorafenib, or ifenprodil+sorafenib treatment using string v11.0 (internet site: string-db.org/). Top hits Gene ontologies (biological processes) were identified as GO enriched with a false discovery rate less than 0.01 and contain more than 40 observations for over-expressions and down-regulations of DEGs in total across all treatments. More specific GO terms containing fewer than 3000 genes and fewer than 300 observations across all treatments were then focused on.

[3] = tested on: MHCC97L-derived and patient-derived xenografts; assay: Western blot and immunohistochemistry of resected xenografts; assay type: in vivo, mouse; conditions: HCC patient-derived xenograft PDX1
Description: 5×10^5 MHCC97L cells, 3.5×10^5 cells (for PDX1) and 1×10^5 cells (for PDX2) dissociated from HCC patient derived xenograft (PDX), were injected subcutaneously into the left flank of 4 to 5-week-old male BALB/c nude mice and NOD/SCID mice, respectively. 1×10^4 RIL-175 cells were injected into the right median lobe of the livers from 9 to 12-week-old male C57BL/6N mice. Size of subcutaneously xenografted tumors was measured by an external caliper and tumor volume was estimated by the equation: Volume=½ (Length×Width^2), where the length and width represent the largest and smallest diameters, respectively. Drug administration began when the subcutaneous tumor reached ˜0.05 cm3 in size or at day 5 post-injection (for RIL-175 cells), at which point mice were divided into four groups randomly for daily treatment with DMSO, ifenprodil (20 mg/kg/day, intraperitoneally), sorafenib (28 mg/kg/day, orally), or the combination. […] Tumor volume and body weight of each mouse were then measured every two days. […] The mice were checked every two days, and tumor incidence and latency were recorded. […]
Cells or homogenized tissues collected from xenografts were lysed by 2X RIPA lysis buffer supplemented with protease inhibitor cocktail (ProBlock™ Gold Mammalian, Goldbio), PhosSTOP (Roche), 1 mM Na3VO4, and 1 mM NaF. […] Supernatants were quantified using the Bradford assay (BioRad). […]

RIL-175 cells = assay: Lung metastasis model (tail vein injection); assay type: in vivo, mouse; conditions: nude mice, 20 mg/kg ifenprodil, 28 mg/kg sorafenib, 10 days
NMDAR subunits = conditions: cited from earlier work
HCC patients [4] = conditions: cited from earlier work
HCC patients [5] = conditions: Asian study; cited from earlier work
HCC patients [6] = conditions: phase III, first line; cited from earlier work

## CC(C(O)c1ccc(O)cc1)N1CCC(Cc2ccccc2)CC1 (stereo not drawn) [Ifenprodil, ifenprodil]
MHCC97L cells [1]
  HCC growth, NMDAR inhibitor alone: did not significantly suppress
MHCC97L cells [2]
  CDK1A expression (RNA-seq) compared to non-treated cells: significantly upregulated
  CDK2 expression (RNA-seq) compared to non-treated cells: significantly downregulated
  DDIT3 expression (RNA-seq) compared to non-treated cells: significantly upregulated
  ERN1 expression (RNA-seq) compared to non-treated cells: no differences were observed
[3]
  tumor vasculature (CD31-positive vessels): inhibited tumor vasculature
RIL-175 cells
  metastases of mouse HCC cells to form tumors in the lung: did not affect the metastases
NMDAR subunits
  NMDAR subunit selectivity: more selective for NMDAR1/NMDAR2B subunits
  toxicity / safety as therapeutic agent: tested safe in human
NMDAR subunits; listed as IFEN
  toxicity / safety as therapeutic agent: known safety history

## CNC(=O)c1cc(Oc2ccc(NC(=O)Nc3ccc(Cl)c(C(F)(F)F)c3)cc2)ccn1 [Sorafenib, sorafenib]
MHCC97L cells [2]
  CDK1A expression (RNA-seq) compared to non-treated cells: significantly upregulated
  CDK2 expression (RNA-seq) compared to non-treated cells: significantly downregulated
  DDIT3 expression (RNA-seq) compared to non-treated cells: significantly upregulated
  ERN1 expression (RNA-seq) compared to non-treated cells: significantly upregulated
[3]
  tumor vasculature (CD31-positive vessels): inhibited tumor vasculature
RIL-175 cells
  metastases of mouse HCC cells to form tumors in the lung: did not affect the metastases
HCC patients [4]; SHARP trial
  median overall survival: 10.7 months
HCC patients [4]; phase III trials
  tolerability: generally well tolerated
HCC patients [5]
  median overall survival: 6.5 months
HCC patients [6]
  Median survival: 9.9 months
  discontinuation rate: 33%
